Results: US10925858B2, “S-nitrosoglutathione (GSNO) and GSNO reductase inhibitors for use in therapy” (MUSC FOUNDATION FOR RESEARCH DEVELOPMENT, priority 2017, dated 2021)

Columns and labels:
cerebral microvessels = assay: Transmission electron microscopy, ultrastructure of microvessels of diabetic mice; assay type: in vivo; details: cortex and hippocampus, GSNO supplemented diabetic animals, 8 weeks
Experimental: Male laca mice weighing between 28-32 g were procured from the Central Animal House, Panjab University, Chandigarh. The animals were acclimatized and were fed with standard pellet diet and water ad libitum. The experimental protocols were approved by the Institutional Ethics Committee and were conducted according to Indian National Science Academy (INSA) guidelines for the use and care of experimental animals. The animals were divided into four groups: (i) Control animals received phosphate buffered saline (PBS) throughout the study; (ii) Control+GSNO animals were administered with GSNO 100 μg/kg body weight orally, dissolved in PBS after every 24 h for 8 weeks; (iii) Diabetic animals were injected with STZ at a dose of 40 mg/kg body weight intraperitoneally for 5 days dissolved in 0.1 mol/L citrate buffer, pH 4.5 and Diabetic+GSNO mice were administered GSNO 100 μg/kg body weight orally dissolved in PBS after every 24 h for 8 weeks after the induction of diabetes. Animals were assessed weekly for development of diabetic encephalopathy in terms of memory deficits. All experimental procedures were done on mice at the end of study. Transmission electron microscopy was carried out by the method described by Gao et al., (2005). […]

[1] = system: IFN-γ, IL-4, IL-17, IL-10; assay: ELISA of CD4+ T cell subset specific cytokines from spleen derived cells of EAE mice after MOG restimulation; assay type: in vivo, C57BL/6 mice; details: N6022, MOG restimulation
Experimental: Female C57BL/6 mice of 8-12 weeks of age, purchased from Jackson Laboratory, were provided with food and water ad libitum and were kept in pathogen free animal care facility of Medical University of South Carolina (MUSC) throughout the study. All procedures were conducted in accordance with accepted standards of humane care as approved by the Institutional Animal Care and Use Committee (Approved number: AR #1644). EAE was induced as described previously (Nath et al., 2009). Briefly, mice were immunized subcutaneously in the flank regions with MOG35-55 peptide (MOG; 200 μg; Peptide International) emulsified (1:1) in 100 ul complete Freund's adjuvant (CFA) on day 0 and day 7. Additionally, 300 ng of Pertussis toxin (Sigma-Aldrich, St. Louis, Mo.) was given on day 0 and day 2 by i.p. injection. Pertussis toxin used as per the standardized protocol reported by us and other investigators for the induction of EAE (Nath et al., 2009). Similarly, healthy control group received subcutaneous injection of PBS and CFA emulsion on day 0 and day 7. Clinical signs of EAE were scored by examiners blinded to experimental treatments using the following scale: 0=no clinical signs of disease; 1=piloerection and sluggish; 2=limp tail (ataxia); 2.5=ataxia with partial hind limb paralysis; 3=full paralysis of hind limb; 3.5=full paralysis of hind limb with paralysis of one fore limb; 4=full paralysis of two limbs; 4.5=moribund stage; 5=death. […] The drug treatments were continued till the termination of the study (day 41 post immunization). EAE animals without drug treatment received PBS. Likewise, healthy controls received vehicle.
Fluorescence flow cytometry analysis for each subset of CD4+ T cells (TH1, TH2, TH17, CD4+CD25+ FOXP3+ Treg, and CD4+CD25+ FOXP3− Treg) were performed based on our previous report with modification (Nath et al., 2004). Briefly, control mice, EAE mice. EAE mice treated with GSNO. […] Following the preparation of single cell suspension, red blood cells were lysed with Pharma lyse buffer (BD Pharmingen™) and the remaining spleen cells were washed with RPMI 1640. The isolated CD4+ T cells were then resuspended with complete RPMI-media in 12-well plates (5×10^6 cells' 2 ml per well) containing MOG peptide (25 μg/ml) for 48 hrs. […] The cell pellets were washed with cell staining solution (ebioscience, Waltham, Mass. USA) and stained with fluorescence labeled antibody specific to IFN-γ for TH1. […] The cells were counted and analyzed using Beackman Coulter instrument (Beckman Coulter, Inc., Brea, Calif., USA).
ELISA assay was performed for analysis of CD4+ T cell subset specific cytokines released from cultured cells or spinal cord tissues. […] The equal amounts of proteins were analyzed for ELISA for IFN-γ. […]

Q: With `N[C@@H](CCC(=O)N[C@@H](CSN=O)C(=O)NCC(=O)O)C(=O)O` [GSNO, S-nitrosoglutathione] as the compound, how does the ultrastructure of microvessels (cerebral microvessels) read?
A: Its ultrastructure of microvessels is “improved the ultrastructure of the damaged microvessels”.

Q: `Cc1cc(C(N)=O)ccc1-n1c(CCC(=O)O)ccc1-c1ccc(-n2ccnc2)cc1` [N6022, reference compound] was tested. Which “IL-10 production from spleen derived cells” value [1] did it give?
A: The value was “enhanced”.

Q: And the “production of IFN-γ from spleen derived cells” value [1]?
A: Its value is “decreased”.

Q: What about the “production of IL-17 from spleen derived cells” value [1] of the same compound?
A: The value was “decreased”.

Q: And the “IL-4 production from spleen derived cells” value ([1]; to the control levels)?
A: The value was “fully restored”.
